# Measured values as given in patent US20100297109A1, “METHODS FOR INHIBITING FASCIN” (Cornell University, priority 2007, published 2010).
# Experiments:
# [1] = system: 4T1 cells; assay: Boyden chamber cell migration assay, serum-induced migration of 4T1 cells; type: cell-based, mouse; settings: FIGS. 1C and 1D
# Protocol: (§1) Cells. Mouse 4T1 mammary tumor cells and human MDA-MB-231 breast tumor cells were obtained from ATCC and have been described previously (Shan et al. 2005, Yang et al. 2005). 4T1 cells were cultured in RPMI 1640 medium supplemented with 10% FBS. MDA-MB-231 cells were cultured in DMEM supplemented with 10% FBS. Wound-healing assay. The wound-healing assay involves observing whether confluent cells can migrate across a scrape or wound in the cell layer. Cell migration assays were performed as described previously (Yang et al. 2005, Shan et al 2006). Tumor cells were plated in a 24-well plate coated with gelatin in standard media. […] Photographs several random regions of the filter facing the second chamber are taken and the number of cells counted to calculate the average number of cells that had transmigrated.
# Boyden Chamber Cell Migration Assay. […] Three randomly selected fields (10× objectives) on the lower side of the insert were photographed, and the migrated cells were counted. The migration was expressed as either the average number of migrated cells in a field or as percentage of migrated cells in positive control. Percentage was calculated with the formula P=100×(M−Mnc)/Mpc, where P is the percentage of migrated cells, M is the number of migrated cells, Mnc is the number of migrated cells in negative controls, and Mpc is the number of migrated cells in positive controls.
# [2] = biological target: T1, fascin (Homo sapiens, UniProt Q16658); assay: GST-fascin and biotin-macroketone interaction; type: binding; set-up: made in house; host or cells: Escherichia coli BL21; settings: excess unlabeled compound
# Protocol: Whole cell lysates from 4T1 mouse breast tumor cells were made. After preclearing the cell lysate with immobilized neutravidin biotin binding protein (Pierce, IL, USA) to remove biotin and avidin-binding proteins, the cell lysates were loaded to a column packed with the biotin-labeled macroketone (conjugated to neutravidin beads). A control column packed with free biotin and neutravidin beads was run side-by-side. After washing the column with 10 bed volumes of lysis buffer with 300 mM NaCl, the bound proteins were eluted with 0.1 M Glycine-HCl at pH 2.8 according to the manufacturer's instruction. […] Protein Expression and Purification. Recombinant GST-fascin fusion protein was produced in BL21 Escherichia coli. A 1-liter culture was grown to an A600 reading of 1.0 and then induced by addition of 0.3 mM isopropyl 1-thio-D-galactopyranoside (IPTG) for 12 hours at 25° C. Cells were flash frozen and then lysed by sonication in Tris-buffered saline. The supernatant was then incubated with glutathione-Sepharose for 2 h at 4° C. After extensive washing, GST-fascin was eluted and concentrated with a Centricon Plus-20 (Millipore). To remove the GST tag from the fusion protein, beads were incubated with thrombin overnight at 4° C. The supernatant was collected and concentrated. GST-fascin and Biotin-macroketone Interaction. […] Proteins associated with biotin-macroketone were precipitated with Untralink-immobilized NeutrAvidin agarose (Pierce). After extensive washing, bound proteins were eluted with SDS sample buffer and resolved by 10% SDS-PAGE. F-Actin Bundling Assay. Actin bundling activity was measured by low speed centrifugation assay and fluorescence microscopy. In low-speed centrifugation assay, monomeric rabbit G-actin was induced to polymerize at room temperature in F-actin buffer (20 mM Tris-HCl at pH 8, 1 mM ATP, 1 mM DTT, 2 mM MgCl2 and 100 mM KCl). Recombinant fascin proteins or control buffer were subsequently incubated with F-actin for 60 min at room temperature and centrifuged for 30 min at 10,000 g in an Eppendorf 5415D table-top centrifuge.
# [3] = biological target: T1, fascin; assay: Chamber migration of fascin siRNA-treated 4T1 cells rescued with human fascin; type: cell-based; set-up: expressed in transfected cells; host or cells: 4T1 mouse mammary tumor cells treated with mouse fascin siRNA 2; settings: human fascin in fascin siRNA-treated 4T1 cells
# Protocol: (§2) Boyden Chamber Cell Migration Assay. Cells (5×10^4) suspended in starvation medium were added to the upper chamber of an insert (6.5 mm diameter, 8-micrometer pore size, Becton Dickenson), and the insert was placed in a 24-well dish containing starvation medium with or without 10% FBS (Yang et al. 2005, Shan et al. 2006). When used, inhibitors were added to both chambers. Migration assays were carried out for 4-6 hours and cells were fixed with 3.7% formaldehyde. Cells were stained with crystal violet staining solution, and cells on the upper side of the insert were removed with a cotton swab. Three randomly selected fields (10× objectives) on the lower side of the insert were photographed, and the migrated cells were counted. The migration was expressed as either the average number of migrated cells in a field or as percentage of migrated cells in positive control. Percentage was calculated with the formula P=100×(M−Mnc)/Mpc, where P is the percentage of migrated cells, M is the number of migrated cells, Mnc is the number of migrated cells in negative controls, and Mpc is the number of migrated cells in positive controls.
# [4] = system: human breast tumor MDA-MB-231 cells; assay: Wound-healing assay, serum-induced migration of MDA-MB-231 cells; type: cell-based; settings: 20 μM
# Protocol: as §1, with “media. After the cells grew to confluence, wounds were made in the confluent layer of cell using a sterile instrument such as a sterile pipette tip. The cells were washed with Phosphate Buffered Saline (PBS) or other sterile solutions and then the migration was induced by adding medium supplemented with 10% FBS. When the wound for the positive control closed, cells were fixed with 3.7% formaldehyde and stained with crystal violet staining solution.” for “media.”
# [5] = biological target: T2, Drosophila fascin (Drosophila melanogaster, UniProt Q24524); assay: Migration of fascin siRNA-treated 4T1 cells rescued with Drosophila fascin; type: cell-based; settings: Drosophila fascin in fascin siRNA-treated 4T1 cells
# T2 construct: expressed in transfected cells; host or cells: 4T1 mouse mammary tumor cells treated with fascin siRNAs
# T2 sequence (Q24524 1-512): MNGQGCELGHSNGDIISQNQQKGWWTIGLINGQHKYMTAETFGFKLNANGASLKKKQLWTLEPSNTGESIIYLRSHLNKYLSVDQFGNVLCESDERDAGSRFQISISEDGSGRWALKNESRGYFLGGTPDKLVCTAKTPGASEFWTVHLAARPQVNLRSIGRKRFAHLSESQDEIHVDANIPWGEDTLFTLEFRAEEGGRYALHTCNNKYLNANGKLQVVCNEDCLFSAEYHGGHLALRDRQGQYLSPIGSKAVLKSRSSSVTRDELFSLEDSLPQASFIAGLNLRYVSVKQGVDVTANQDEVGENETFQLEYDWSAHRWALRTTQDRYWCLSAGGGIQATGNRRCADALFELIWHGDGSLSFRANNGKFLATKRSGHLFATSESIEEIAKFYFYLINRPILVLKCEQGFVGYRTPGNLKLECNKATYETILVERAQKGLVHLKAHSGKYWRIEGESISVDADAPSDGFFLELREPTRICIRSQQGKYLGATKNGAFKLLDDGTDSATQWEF
# Protocol: as §2
smiles,measurement,setting,value
"COC1C=CCCCCC(=O)CCC(C)=CC(C)C1O (stereo not drawn) [macroketone, Migrastatin ketone]",IC50,[1],100 nM
same,competition of binding of biotin-conjugated macroketone to fascin,[2],efficiently competed
same,competition of binding of biotin-conjugated macroketone to fascin,[2]; listed as unlabeled macroketone,decreased the binding
same,sensitivity of rescued migration,[3],sensitive
same,inhibition of serum-induced migration (wound-healing),[4],inhibited the migration
same,sensitivity of rescued migration,[5],no sensitivity
